# ChEMBL document CHEMBL6078673, “Synthesis and anti-tumor activity of menthylamine derivatives: Focusing on the potent inhibitory effect of compound W8 on glioma growth” (Bioorg Med Chem, 2025)
# The source made the active and inactive calls. The calls are words filed in the database; no cut-off is given here.
# Legend:
# U-87 MG [1] = assay: Antiproliferative activity against human U87 cells assessed as inhibition of cell growth incubated for 24 hrs by CCK-8 assay; format: functional, cell-based, U-87MG ATCC
# MCF7 = assay: Antiproliferative activity against human MCF7 cells assessed as inhibition of cell growth incubated for 24 hrs by CCK-8 assay; format: functional, cell-based; settings: MCF7, 24 h
# HCT-116 = assay: Antiproliferative activity against human HCT-116 cells assessed as inhibition of cell growth incubated for 24 hrs by CCK-8 assay; format: functional, cell-based; settings: HCT-116, 24 h
# KYSE-150 cell line = assay: Antiproliferative activity against human KYSE-150 cell line assessed as inhibition of cell growth incubated for 24 hrs by CCK-8 assay; format: functional, cell-based; settings: KYSE-150, 24 h
# [2] = Kinetic solubility in PBS at pH 7.4 incubated under shaking condition for 24 hrs by LC-MS/MS analysis; format: physicochemical; settings: read-out: Kinetic_solubility
# [3] = Apparent permeability across apical to basolateral side in human Caco-2 cells at 2 uM incubated for 2 hrs by LC-MS/MS analysis; format: ADME, cell-based
# [4] = Apparent permeability across basolateral to apical side in human Caco-2 cells at 2 uM incubated for 2 hrs by LC-MS/MS analysis; format: ADME, cell-based
# [5] = Efflux ratio of apparent permeability from basolateral to apical side over apical to basolateral side in human Caco-2 cells at 2 uM incubated for 2 hr by LC-MS/MS analysis; format: ADME, cell-based
# [6] = Metabolic stability in liver microsomes (unknown origin) assessed as half life incubated for 60 mins by LC-MS/MS analysis; format: ADME, Microsome
# [7] = Metabolic stability in liver microsomes (unknown origin) assessed as compound remaining incubated for 60 mins by LC-MS/MS analysis; format: ADME, Microsome; settings: read-out: Stability
# U-87 MG [8] = assay: Induction of apoptosis in human U87 cells at 80 uM incubated for 24 hrs by Annexin V-FITC/PI staining based flow cytometry; format: functional, U-87MG ATCC
# U-87 MG [9] = assay: Induction of apoptosis in human U87 cells assessed as increase in number of apoptotic cells at 80 uM incubated for 24 hrs by Annexin V-FITC/PI staining based flow cytometry; format: functional, cell-based; settings: U-87MG ATCC
# U-87 MG [10] = assay: Induction of apoptosis in human U87 cells assessed as increase in number of early apoptotic cells at 80 uM incubated for 24 hrs by Annexin V-FITC/PI staining based flow cytometry; format: functional, cell-based; settings: U-87MG ATCC
# U-87 MG [11] = assay: Induction of apoptosis in human U87 cells assessed as increase in number of late apoptotic cells at 80 uM incubated for 24 hrs by Annexin V-FITC/PI staining based flow cytometry; format: functional, cell-based; settings: U-87MG ATCC
# U-87 MG [12] = assay: Induction of apoptosis in human U87 cells assessed as increase in number of necrotic cells at 80 uM incubated for 24 hrs by Annexin V-FITC/PI staining based flow cytometry; format: functional, cell-based; settings: U-87MG ATCC
# U-87 MG [13] = assay: Induction of cell cycle arrest in human U87 cells assessed as decrease in number of cells at G1 phase at 80 uM incubated for 24 hrs by RNase/PI staining based flow cytometry; format: functional; settings: U-87MG ATCC
# U-87 MG [14] = assay: Induction of cell cycle arrest in human U87 cells assessed as decrease in number of cells at G2 phase at 80 uM incubated for 24 hrs by RNase/PI staining based flow cytometry; format: functional; settings: U-87MG ATCC
# U-87 MG [15] = assay: Induction of cell cycle arrest in human U87 cells assessed as increase in number of cells at S phase at 80 uM incubated for 24 hrs by RNase/PI staining based flow cytometry; format: functional; settings: U-87MG ATCC
# U-87 MG [16] = assay: Inhibition of cell migration in human U87 cells at 80 uM incubated for 48 hrs by scratch assay; format: functional, cell-based; settings: U-87MG ATCC
# U-87 MG [17] = assay: Inhibition of cell invasion in human U87 cells incubated for 48 hrs by crystal violet staining based microscopic analysis; format: functional; settings: U-87MG ATCC
# HUVEC = assay: Antiangiogenesis activity in human HUVEC cells assessed as inhibition of vascular structure formation at 80 uM incubated for 12 hrs by inverted fluorescence microscopic analysis; format: functional, cell-based
# U-87 MG [18] = assay: Antiangiogenesis activity in human U87 cells assessed as inhibition of neovascularization at 80 uM incubated for 12 hrs by inverted fluorescence microscopic analysis; format: functional, cell-based; settings: U-87MG ATCC
# U-87 MG [19] = assay: Antitumor activity in human U87 cells assessed as downregulation of […] expression at 80 uM incubated for 24 hrs by Western blotting analysis; format: functional, cell-based; settings: U-87MG ATCC
# U-87 MG [20] = assay: Antitumor activity in human U87 cells assessed as downregulation of CD133 expression at 80 uM incubated for 24 hrs by Western blotting analysis; format: functional, cell-based; settings: U-87MG ATCC
# U-87 MG [21] = assay: Antitumor activity in human U87 cells assessed as downregulation of ANGP-2 expression at 80 uM incubated for 24 hrs by Western blotting analysis; format: functional, cell-based; settings: U-87MG ATCC
# U-87 MG [22] = assay: Antitumor activity in human U87 cells assessed as downregulation of VEGFR2 expression at 80 uM incubated for 24 hrs by Western blotting analysis; format: functional, cell-based; settings: U-87MG ATCC
# U-87 MG [23] = assay: Antitumor activity in human U87 cells assessed as upregulation of cleaved caspase-3 expression at 80 uM incubated for 24 hrs by Western blotting analysis; format: functional, cell-based; settings: U-87MG ATCC
# U-87 MG [24] = assay: Antitumor activity against human U87 cells xenografted in Balb/c mouse assessed as reduction in tumor size at 10 mg/kg,ip administered every 3 days measured after 27 days; format: functional, organism-based; settings: U-87MG ATCC, time 27.0 day
# [25] = Toxicity in Balb/c mouse xenografted with human U87 cells assessed as body weight loss at 10 mg/kg,ip administered every 3 days measured after 27 days; format: organism-based; settings: in vivo, 648 h, time 27 day
# [26] = Toxicity in Balb/c mouse xenografted with human U87 cells assessed as histological change in heart at 10 mg/kg,ip administered every 3 days measured after 27 days by hematoxylin and eosin staining based assay; format: organism-based; settings: in vivo, 648 h, time 27 day
# [27] = Toxicity in Balb/c mouse xenografted with human U87 cells assessed as histological change in liver at 10 mg/kg,ip administered every 3 days measured after 27 days by hematoxylin and eosin staining based assay; format: organism-based; settings: in vivo, 648 h, time 27 day
# [28] = Toxicity in Balb/c mouse xenografted with human U87 cells assessed as histological change in spleen at 10 mg/kg,ip administered every 3 days measured after 27 days by hematoxylin and eosin staining based assay; format: organism-based; settings: in vivo, 648 h, time 27 day
# [29] = Toxicity in Balb/c mouse xenografted with human U87 cells assessed as histological change in lung at 10 mg/kg,ip administered every 3 days measured after 27 days by hematoxylin and eosin staining based assay; format: organism-based; settings: in vivo, 648 h, time 27 day
# [30] = Toxicity in Balb/c mouse xenografted with human U87 cells assessed as histological change in kidney at 10 mg/kg,ip administered every 3 days measured after 27 days by hematoxylin and eosin staining based assay; format: organism-based; settings: in vivo, 648 h, time 27 day
# [31] = Toxicity in Balb/c mouse xenografted with human U87 cells assessed as histological change in brain at 10 mg/kg,ip administered every 3 days measured after 27 days by hematoxylin and eosin staining based assay; format: organism-based; settings: in vivo, 648 h, time 27 day
# [32] = Toxicity in Balb/c mouse xenografted with human U87 cells assessed as histological change in heart at 10 mg/kg,ip administered every 3 days measured after 27 days by TUNEL staining based assay; format: organism-based; settings: in vivo, 648 h, time 27 day
# [33] = Toxicity in Balb/c mouse xenografted with human U87 cells assessed as histological change in liver at 10 mg/kg,ip administered every 3 days measured after 27 days by TUNEL staining based assay; format: organism-based; settings: in vivo, 648 h, time 27 day
# [34] = Toxicity in Balb/c mouse xenografted with human U87 cells assessed as histological change in spleen at 10 mg/kg,ip administered every 3 days measured after 27 days by TUNEL staining based assay; format: organism-based; settings: in vivo, 648 h, time 27 day
# [35] = Toxicity in Balb/c mouse xenografted with human U87 cells assessed as histological change in lung at 10 mg/kg,ip administered every 3 days measured after 27 days by TUNEL staining based assay; format: organism-based; settings: in vivo, 648 h, time 27 day
# [36] = Toxicity in Balb/c mouse xenografted with human U87 cells assessed as histological change in kidney at 10 mg/kg,ip administered every 3 days measured after 27 days by TUNEL staining based assay; format: organism-based; settings: in vivo, 648 h, time 27 day
# [37] = Toxicity in Balb/c mouse xenografted with human U87 cells assessed as histological change in brain at 10 mg/kg,ip administered every 3 days measured after 27 days by TUNEL staining based assay; format: organism-based; settings: in vivo, 648 h, time 27 day
# U-87 MG [38] = assay: Induction of cell cycle arrest in human U87 cells assessed as increase in number of cells at G1 phase at 80 uM incubated for 24 hrs by RNase/PI staining based flow cytometry; format: functional; settings: U-87MG ATCC
# U-87 MG [39] = assay: Induction of cell cycle arrest in human U87 cells assessed as increase in number of cells at G2 phase at 80 uM incubated for 24 hrs by RNase/PI staining based flow cytometry; format: functional; settings: U-87MG ATCC
# U-87 MG [40] = assay: Induction of cell cycle arrest in human U87 cells assessed as decrease in number of cells at S phase at 80 uM incubated for 24 hrs by RNase/PI staining based flow cytometry; format: functional; settings: U-87MG ATCC
structure (smiles),measurement,setting,value
CC(C)[C@H]1CC[C@@H](C)C[C@@H]1N1C(=O)c2ccccc2C1=O,IC50,U-87 MG [1],65.3 µM
same,IC50,MCF7,1490 µM
same,IC50,HCT-116,57.2 µM
same,IC50,KYSE-150 cell line,972 µM
same,solubility kinetic at 24 h,[2],0.03 µM
same,"Papp A→B at 2 h, 2 µM",[3]; Caco-2,25.7 ×10⁻⁶ cm/s
same,"Papp B→A at 2 h, 2 µM",[4]; Caco-2,13.3 ×10⁻⁶ cm/s
same,"efflux ratio at 2 h, 2 µM",[5]; Caco-2,0.52
same,half-life,[6],> 2.42 h
same,remaining at 1 h,[7],82.8%
same,Activity,U-87 MG [8],90%
same,Activity,U-87 MG [9],Active; Significantly Increased Activity Observed
same,Activity,U-87 MG [10],Active
same,Activity,U-87 MG [11],Active
same,Activity,U-87 MG [12],Active
same,Activity,U-87 MG [13],inactive
same,Activity,U-87 MG [14],inactive
same,Activity,U-87 MG [15],inactive
same,inhibition,U-87 MG [16],Active
same,inhibition,U-87 MG [17],Active
same,Activity,HUVEC,Active
same,Activity,U-87 MG [18],Active
same,Activity,U-87 MG [19],Active
same,Activity,U-87 MG [20],Active
same,Activity,U-87 MG [21],Active
same,Activity,U-87 MG [22],Active
same,Activity,U-87 MG [23],Active
same,Activity,U-87 MG [24],Active
same,Activity,[25],Non-toxic
same,Activity,[26],Non-toxic
same,Activity,[27],Non-toxic
same,Activity,[28],Non-toxic
same,Activity,[29],Non-toxic
same,Activity,[30],Non-toxic
same,Activity,[31],Non-toxic
same,Activity,[32],Non-toxic
same,Activity,[33],Non-toxic
same,Activity,[34],Non-toxic
same,Activity,[35],Non-toxic
same,Activity,[36],Non-toxic
same,Activity,[37],Non-toxic
CC(C)[C@H]1CC[C@H](C)C[C@H]1N,IC50,U-87 MG [1],317 µM
same,IC50,MCF7,> 1260 µM
same,IC50,HCT-116,630 µM
same,IC50,KYSE-150 cell line,> 3280 µM
same,solubility kinetic at 24 h,[2],0.625 µM
same,Papp,"[3]; caco-2, 2 h, 2 µM",23.47 10^-6 cm/s
same,Papp,"[4]; caco-2, 2 h, 2 µM",22.23 10^-6 cm/s
same,Ratio,"[5]; caco-2, 2 h, 2 µM",0.55
same,half-life,[6],> 2.42 h
same,remaining at 1 h,[7],81.8%
same,Activity,U-87 MG [8]; U-87MG ATCC,Active
same,Activity,U-87 MG [9],Active; Significantly Increased Activity Observed
same,Activity,U-87 MG [38],Active
same,Activity,U-87 MG [39],Active
same,Activity,U-87 MG [40],Active
same,inhibition,U-87 MG [16],Active
